Biological target: T1, PI3Kα kinase (Homo sapiens, UniProt P42336)
T1 construct: purchased Invitrogen PV4788
Assay: PI3Ka Transcreener ADP assay (fluorescence polarization)
Format: biochemical
Conditions: 10 μM ATP, 30 μmol/L lipid substrate; read-out: IC50, inhibition of PI3Kα kinase
Method: Fluorescence polarization was used in this assay. The final conditions for kinase assay are 10 μM of ATP, 0.2 ng/μL of PI3Kα kinase, 30 μmol/L of lipid substrate and assay buffer (50 mmol/L of HEPES (pH 7.5), 100 mmol/L of NaCl, 1 mmol/L of EGTA, 3 mmol/L of MgCl2, 1 mmol/L of DTT and 0.03% CHAPS and 2% DMSO).
5 μL of test compounds in 10% DMSO and 10 μL of 0.5 ng/μL PI3K kinase (Invitrogen, PV4788) in assay buffer are put into a 96-well plate (Greiner, Cat. 675076), and then the reaction is started by the addition of 10 μL of 75 μmol/L PIP2, (PS Lipid Substrate Invitrogen, PV5100), and 25 μmol/L ATP mixture. After the mixture is incubated for 60 minutes at room temperature, 25 μL of transcreener Kinase Kit reagent—ADP Detection Mix—(Bellbrook Labs) is added, and the reaction is continued for an additional 1.5 hours. At the end, the plate is read in a Tecan Infinite F500 at excitation of 610 nm and emission of 670 nm.
A standard curve for ADP is obtained in a parallel way by replacing compound and PI3Kα kinase with DMSO and assay buffer, respectively. Different concentration of ADP, 0-10 μM, and ATP, 10-0 μM (ATP+ADP equal to 10 μM) are applied instead of a fixed concentration of ATP in this standard curve assay. Other conditions are the same as described above. The standard curve is plotted using Origin 8.0 software. The inhibition of test compound on ADP production is calculated based on ADP concentration from standard curve. IC50 is obtained using XLfit 2.0 software.

T1 sequence (P42336 whole entry): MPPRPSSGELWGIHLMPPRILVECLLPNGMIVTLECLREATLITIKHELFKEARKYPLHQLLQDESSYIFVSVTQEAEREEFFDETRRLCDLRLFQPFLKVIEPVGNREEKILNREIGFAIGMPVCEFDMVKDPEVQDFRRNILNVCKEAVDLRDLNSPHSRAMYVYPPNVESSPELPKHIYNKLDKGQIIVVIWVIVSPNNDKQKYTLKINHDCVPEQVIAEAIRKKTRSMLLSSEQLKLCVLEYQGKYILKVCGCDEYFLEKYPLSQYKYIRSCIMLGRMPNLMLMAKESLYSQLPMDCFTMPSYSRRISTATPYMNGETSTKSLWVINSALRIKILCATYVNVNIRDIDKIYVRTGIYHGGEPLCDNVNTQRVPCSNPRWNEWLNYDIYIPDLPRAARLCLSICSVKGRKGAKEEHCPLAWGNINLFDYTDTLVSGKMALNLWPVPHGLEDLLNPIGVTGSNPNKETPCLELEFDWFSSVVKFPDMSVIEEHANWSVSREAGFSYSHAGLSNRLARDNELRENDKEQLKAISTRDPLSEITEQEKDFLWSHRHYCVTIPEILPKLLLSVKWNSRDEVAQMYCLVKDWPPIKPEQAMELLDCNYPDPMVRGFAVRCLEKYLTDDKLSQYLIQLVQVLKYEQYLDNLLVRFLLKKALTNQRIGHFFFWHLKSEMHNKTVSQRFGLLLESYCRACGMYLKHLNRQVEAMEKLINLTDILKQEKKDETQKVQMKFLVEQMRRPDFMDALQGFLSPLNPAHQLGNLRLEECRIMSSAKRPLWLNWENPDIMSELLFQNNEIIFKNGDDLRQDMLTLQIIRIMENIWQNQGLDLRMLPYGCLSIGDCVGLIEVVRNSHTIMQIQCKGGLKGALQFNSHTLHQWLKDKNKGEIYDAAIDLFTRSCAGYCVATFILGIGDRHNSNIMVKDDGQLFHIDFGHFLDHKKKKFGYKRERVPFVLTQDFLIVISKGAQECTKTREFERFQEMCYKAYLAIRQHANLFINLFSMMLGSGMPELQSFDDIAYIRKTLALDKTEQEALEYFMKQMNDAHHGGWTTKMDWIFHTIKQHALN
T1 sequence (P27986 whole entry partner): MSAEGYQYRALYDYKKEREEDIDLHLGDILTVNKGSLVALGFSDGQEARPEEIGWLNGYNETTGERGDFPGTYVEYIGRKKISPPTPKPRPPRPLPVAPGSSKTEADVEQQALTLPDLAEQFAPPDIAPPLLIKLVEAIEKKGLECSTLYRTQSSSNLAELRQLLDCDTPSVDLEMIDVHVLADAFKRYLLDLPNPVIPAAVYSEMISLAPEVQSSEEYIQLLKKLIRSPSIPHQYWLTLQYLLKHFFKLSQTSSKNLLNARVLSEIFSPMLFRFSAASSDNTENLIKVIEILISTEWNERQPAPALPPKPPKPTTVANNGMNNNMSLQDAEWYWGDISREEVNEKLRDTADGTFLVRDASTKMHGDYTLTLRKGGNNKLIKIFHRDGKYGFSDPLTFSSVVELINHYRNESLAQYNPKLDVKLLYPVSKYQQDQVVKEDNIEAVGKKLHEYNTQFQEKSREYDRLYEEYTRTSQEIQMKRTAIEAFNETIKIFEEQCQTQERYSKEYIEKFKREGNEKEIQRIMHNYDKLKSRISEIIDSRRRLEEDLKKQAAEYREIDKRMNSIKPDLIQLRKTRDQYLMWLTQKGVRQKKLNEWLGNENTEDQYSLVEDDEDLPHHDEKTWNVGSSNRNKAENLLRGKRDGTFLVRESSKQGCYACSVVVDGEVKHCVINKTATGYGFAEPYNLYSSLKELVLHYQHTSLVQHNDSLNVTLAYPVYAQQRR

IC50, < 100 nM:
Cc1ccc(-c2ccc3ncc4nnn(C5CCN(C(=O)[C@H](C)O)CC5)c4c3n2)cn1 [Compound 2]
Cc1cc(-c2ccc3ncc4nnn(C5CCN(C(=O)[C@H](C)O)CC5)c4c3n2)cnc1N [Compound 3]
COc1ccc(-c2ccc3ncc4nnn(C5CCN(C(=O)[C@H](C)O)CC5)c4c3n2)cn1 [Compound 5]
C[C@H](O)C(=O)N1CCC(n2nnc3cnc4ccc(-c5cnc6[nH]ccc6c5)nc4c32)CC1 [Compound 8]
Nc1ncc(-c2ccc3ncc4nnn(C5CCN(C(=O)C6CC6)CC5)c4c3n2)cc1F [Compound 11]
Nc1ncc(-c2ccc3ncc4nnn(-c5cccc(Cl)c5)c4c3c2)cn1 [Compound 13]
CC(=O)N1CCC(n2nnc3cnc4ccc(-c5cnc(N)c(C(F)(F)F)c5)cc4c32)CC1 [Compound 15]
CC(C)(C#N)c1ccc(-n2nnc3cnc4ccc(-c5cnc(N)nc5)nc4c32)cc1 [Compound 18]
Nc1ncc(-c2ccc3ncc4nnn(C5CCN(CC6CC6)CC5)c4c3n2)cc1C(F)(F)F [Compound 20]
Cc1cc(-c2ccc3ncc4nnn(C5CCN(C(=O)[C@@H](C)O)CC5)c4c3n2)cnc1N [Compound 22]
C[C@H](O)C(=O)N1CCC(n2nnc3cnc4ccc(-c5cnc(N)c(C(F)(F)F)c5)cc4c32)CC1 [Compound 23]
C[C@@H](O)C(=O)N1CCC(n2nnc3cnc4ccc(-c5cnc(N)c(C(F)(F)F)c5)cc4c32)CC1 [Compound 24]
C=CC(=O)N1CCC(n2nnc3cnc4ccc(-c5cnc(N)c(C(F)(F)F)c5)nc4c32)CC1 [Compound 28]
C=CC(=O)N1CCC(n2nnc3cnc4ccc(-c5cnc(N)c(C)c5)nc4c32)CC1 [Compound 29]
CC(C)C(=O)N1CCC(n2nnc3cnc4ccc(-c5cnc(N)c(F)c5)nc4c32)CC1 [Compound 31]
CN1CCC(C(=O)N2CCC(n3nnc4cnc5ccc(-c6cnc(N)c(C(F)(F)F)c6)nc5c43)CC2)CC1 [Compound 36]
CCCCC(=O)N1CCC(n2nnc3cnc4ccc(-c5cnc(N)c(C(F)(F)F)c5)nc4c32)CC1 [Compound 37]
Nc1ncc(-c2ccc3ncc4nnn(C5CCN(C(=O)CC6CC6)CC5)c4c3n2)cc1C(F)(F)F [Compound 38]
Nc1ncc(-c2ccc3ncc4nnn(C5CCN(C(=O)C6(O)CC6)CC5)c4c3n2)cc1C(F)(F)F [Compound 39]
Nc1ncc(-c2ccc3ncc4nnn(C5CCN(C(=O)c6ccccn6)CC5)c4c3n2)cc1C(F)(F)F [Compound 40]
Nc1ncc(-c2ccc3ncc4nnn(C5CCN(C(=O)c6ccccc6)CC5)c4c3n2)cc1C(F)(F)F [Compound 41]
Nc1ncc(-c2ccc3ncc4nnn(C5CCN(Cc6ccccn6)CC5)c4c3n2)cc1C(F)(F)F [Compound 47]
Nc1ncc(-c2ccc3ncc4nnn(C5CCN(CC6CCOCC6)CC5)c4c3n2)cc1C(F)(F)F [Compound 48, 5-(1-(1-((tetrahydro-2H-pyran-4-yl)methyl)piperidin-4-yl)-1H-[1,2,3]triazolo[4,5-c][1,5]naphthyridin-8-yl)-3-(trifluoromethyl)pyridin-2-amine]
CC(C)(C#N)c1ccc(-c2nnc3cnc4ccc(-c5cnc(N)c(C(F)(F)F)c5)cc4n23)cn1 [Compound 54]
Cc1cc(-c2ccc3ncc4nnc(-c5ccc(C(C)(C)C#N)nc5)n4c3c2)cnc1N [Compound 57]
Nc1ncc(-c2ccc3ncc4nnc(-c5ccc(F)cn5)n4c3c2)cc1C(F)(F)F [Compound 59]
Nc1nc2ccc(-c3ccc4ncc5nnc(-c6ccc(F)cn6)n5c4c3)cc2s1 [Compound 60]
CC(C)(C#N)c1ccc(-c2nnc3cnc4ccc(-c5ccc6[nH]ncc6c5)cc4n23)cc1 [Compound 61]
N#Cc1cccc(-c2nnc3cnc4ccc(-c5cnc(N)c(C(F)(F)F)c5)cc4n23)c1 [Compound 62]
N#Cc1ccc(-c2nnc3cnc4ccc(-c5cnc(N)c(C(F)(F)F)c5)cc4n23)cc1 [Compound 64]
Cc1ccc(-c2nnc3cnc4ccc(-c5cnc(N)c(C(F)(F)F)c5)cc4n23)cn1 [Compound 65]
CC(C)(C#N)c1ccc(-c2nnc3cnc4ccc(-c5ccc6nc(N)oc6c5)cc4n23)cn1 [Compound 67]
CC(C)(C#N)C(=O)c1ccc(-c2nnc3cnc4ccc(-c5cnc(N)c(C(F)(F)F)c5)cc4n23)cc1 [Compound 68]
CC(C)(C#N)c1ccc(-c2nnc3cnc4ccc(-c5cnc6[nH]ccc6c5)cc4n23)cc1 [Compound 69]
Nc1ncc(-c2ccc3ncc4nnc(-c5ccc(F)cc5)n4c3c2)cc1C(F)(F)F [Compound 70]
CS(=O)(=O)c1ccc(-c2nnc3cnc4ccc(-c5cnc(N)c(C(F)(F)F)c5)cc4n23)cc1 [Compound 71]
N#Cc1ccc(-c2nnc3cnc4ccc(-c5ccc6nc(N)sc6c5)cc4n23)nc1 [Compound 73]
COc1ncc(-c2ccc3ncc4nnc(-c5ccc(C(C)(C)C#N)cc5)n4c3c2)cc1N [Compound 74]
COc1cc(-c2ccc3ncc4nnc(-c5ccc(C(C)(C)C#N)cc5)n4c3c2)cnc1OC [Compound 76]
CC(C)(C#N)c1ccc(-c2nnc3cnc4ccc(-c5cnc(N)c(Cl)c5)cc4n23)cc1 [Compound 77]
C[C@H](O)C(=O)N1CCC(c2nnc3cnc4ccc(-c5cnc(N)c(C(F)(F)F)c5)cc4n23)CC1 [Compound 79, (S)-1-(4-(8-(6-amino-5-(trifluoromethyl)pyridin-3-yl)-[1,2,4]triazolo[4,3-a]quinoxalin-1-yl)piperidin-1-yl)-2-hydroxypropan-1-one]
C[C@H](O)C(=O)N1CCC(c2nnc3cnc4ccc(-c5ccc6nc(N)sc6c5)cc4n23)CC1 [Compound 80]
C[C@@H](O)C(=O)N1CCC(c2nnc3cnc4ccc(-c5ccc6nc(N)sc6c5)cc4n23)CC1 [Compound 81]
CC(=O)N1CCC(Cc2nnc3cnc4ccc(-c5cnc(N)c(C(F)(F)F)c5)cc4n23)CC1 [Compound 82]
CC(=O)N1CCC(Cc2nnc3cnc4ccc(-c5ccc6nc(N)sc6c5)cc4n23)CC1 [Compound 83]
CC(=O)N1CCCC(c2nnc3cnc4ccc(-c5ccc6nc(N)sc6c5)cc4n23)C1 (stereo not shown) [Compound 84]
Nc1ncc(-c2ccc3ncc4nnc(C5CCC(O)CC5)n4c3c2)cc1C(F)(F)F (stereo not shown) [Compound 85]
Nc1ncc(-c2ccc3ncc4nnc(CN5CCCC5)n4c3c2)cc1C(F)(F)F [Compound 87]
CC(C)(C#N)c1ccc(-n2cnc3cnc4ccc(-c5cnc(N)c(C(F)(F)F)c5)nc4c32)cn1 [Compound 89]
Cc1cc(-c2ccc3ncc4ncn(-c5ccc(C(C)(C)C#N)nc5)c4c3n2)cnc1N [Compound 90]
COc1cc(-c2ccc3ncc4ncn(-c5ccc(C(C)(C)C#N)nc5)c4c3n2)cnc1OC [Compound 92]
CC(C)(C#N)c1ccc(-n2cnc3cnc4ccc(-c5cnc(N)nc5)nc4c32)cn1 [Compound 94]
COc1cc(-c2ccc3ncc4ncn(-c5ccc(C(C)(C)C#N)nc5)c4c3n2)cnc1N [Compound 95]
Nc1ncc(-c2ccc3ncc4ncn(C5CCN(CC(=O)N6CCOCC6)CC5)c4c3n2)cc1C(F)(F)F [Compound 97]
COc1cc(-c2ccc3ncc4ncn(C5CCN(CC(=O)N(C)C)CC5)c4c3n2)cnc1OC [Compound 99]
Cc1ccc(-c2ccc3ncc4ncn(C5CCN(CC(=O)N(C)C)CC5)c4c3n2)cn1 [Compound 100]
CCNC(=O)N1CCC(n2cnc3cnc4ccc(-c5cnc(N)c(C(F)(F)F)c5)nc4c32)CC1 [Compound 101]
CC(C)(C#N)c1ccc(-n2cnc3cnc4ccc(-c5cnc(N)c(C(F)(F)F)c5)nc4c32)cc1 [Compound 104]
CCOc1cc(-c2ccc3ncc4ncn(-c5ccc(C(C)(C)C#N)nc5)c4c3n2)cnc1N [Compound 108]
Nc1ncc(-c2ccc3ncc4ncn(CCN5CCOCC5)c4c3n2)cc1C(F)(F)F [Compound 109]
C[C@@H](O)C(=O)N1CCC(n2cnc3cnc4ccc(-c5cnc(N)c(C(F)(F)F)c5)nc4c32)CC1 [Compound 110]
Nc1ncc(-c2ccc3ncc4ncn(CCN5CCCC5)c4c3n2)cc1C(F)(F)F [Compound 111]
C#Cc1cc(-c2ccc3ncc4ncn(C5CCN(C(=O)C6CC6)CC5)c4c3n2)cnc1N [Compound 112]
Cc1ccc(-c2ccc3ncc4ncn(C5CCN(C(=O)[C@H](C)O)CC5)c4c3n2)cn1 [Compound 113]

— US9181264B2, “Fused heteroaryls and their uses” (Hutchison MediPharma Limited, priority 2011, dated 2015)
